Among the data in patent publication US20190062699A1, “HIGHLY FUNCTIONAL HEPATOCYTE AND USE THEREOF” (GAIA BioMedicine Inc., priority 2016, published 2019) are ammonia-metabolizing function-enhancing effect values, retold here.

This experiment relates to iPS-HEP cells. Briefly: ammonia metabolism test (Ammonia Test Wako) on iPS-derived hepatocytes. In kind it is cell-based, human. To be noted: compounds in differentiation induction medium III (FH1 final 50 μM, FPH1 final 20 μM); compared with use of feeder cells (HUVECs, MSCs); 2 mM ammonia, 24 hours. How it is done: When HUVEC and MSC are used as feeder cells, perform co-culture as required as adhesion culture (refer to Non-patent document 1 cited below). • 2.11. Indicate the date, name of the cells, etc. on the culture plate, and carry out culture in an incubator at 37° C. and 5% CO2. • 2.12. Carry out an operation of removing the supernatant, and adding flesh medium III on every other day up to Day 17. • [Day 17: Completion of CiPS-Hep->ammonia metabolism test] • 1. Prepare HBM (cocktail)+aqueous ammonia (henceforth referred to as ammonia medium) in a volume of 1 ml/well×2.
• 2. Remove the culture supernatant, and wash the cell surfaces once with 1 ml of HBM, and once with ammonia HBM. • 3. […]
• 4. […] During the centrifugation, turn on the power sources of microplate reader and personal computer, and choose Tecan i-control. • 8. […] Remove a lid, set the plate on the microplate reader, and sway the plate (double click “Shaking”, choose “10 sec” and “Normal”, and click “Start”). • 11. […] Set the plate on the microplate reader, and sway the plate. • 13. […] Set the plate on the microplate reader, and sway the plate. • 15. […] Finely wipe the bottom of the plate, and set the plate on the microplate reader with adjusting the upper left corner. • 18. Measure absorbance (620 or 630 nm) (double click “Measure” of “Absorbance”, select the well for measurement at 620 nm in “Details”, and click “Start”).

“Also recorded” adds a separate entry of the source.

As for `Cc1ccc(Cl)cc1N(CC(=O)Nc1c(F)cccc1F)S(C)(=O)=O` [FPH1, 2-N-(5-chloro-2-methylphenyl)(methylsulfonamido)-N-(2,6-difluorophenyl)acetamide], the ammonia-metabolizing function-enhancing effect entry is on record as “higher ammonia-metabolizing function-enhancing effect compared with use of feeder cells; also recorded: higher metabolism-enhancing effect compared with use of feeder cells”.
In the case of `CC(=O)Nc1ccc(Cc2ccc(NC(C)=O)cc2)cc1` [FH1, N,N′-(methylenebis)(4,1-phenylene)diacetamide], the ammonia-metabolizing function-enhancing effect entry is “higher ammonia-metabolizing function-enhancing effect compared with use of feeder cells; also recorded: higher metabolism-enhancing effect compared with use of feeder cells”.
